The values that follow come from ChEMBL document CHEMBL3044639, “Synthesis and biologic activities of some novel heterocyclic chalcone derivatives” (Med Chem Res, 2013).

Test [1] relates to Staphylococcus aureus. The experiment in a line: Antibacterial activity against Staphylococcus aureus 1199B overexpressing NorA assessed as reduction of ciprofloxacin MIC at MEC after 18 hr by broth checkerboard method relative to control. The class given is functional.
Test [2] concerns Staphylococcus aureus. The test is described as follows: Antibacterial activity against Staphylococcus aureus 1199B overexpressing NorA assessed as growth inhibition after 18 hr by broth checkerboard method. The class given is functional. Conditions: read-out: MEC.
The subject of test [3] is Radical scavenging activity. The experiment in a line: Antioxidant activity assessed as DPPH radical scavenging activity after 20 min by microplate ELISA reader analysis. The class given is functional. In general terms: DPPH is a stable violet radical that fades when it is reduced.
The test system of the next test is Rattus norvegicus. The test is described as follows: Anti-inflammatory activity in Wistar Rattus norvegicus (rat) assessed as inhibition of carrageenan-induced paw edema at 100 mg/kg, po administered 45 min prior to carrageenan-challenge measured 45 min to 4 hr post carrageenan-challenge relative to control. The class given is functional. (Carrageenan injected into the paw causes an acute inflammation.)

Another test concerns HL-60. The experiment in a line: Cytotoxicity against Homo sapiens (human) HL60 cells assessed as growth inhibition after 48 hr by MTT assay. The class given is functional, cell-based. Conditions: HL-60, 48 h.
For another test, the system named is HeLa. The experiment in a line: Cytotoxicity against Homo sapiens (human) HeLa cells assessed as growth inhibition after 48 hr by MTT assay. Format: functional, cell-based.
Another test has as its system MOLT-4. The experiment in a line: Cytotoxicity against Homo sapiens (human) MOLT4 cells assessed as growth inhibition after 48 hr by MTT assay. Format: functional, cell-based. Conditions: MOLT-4, 48 h.
In the next test the test system is PC-3. The test is described as follows: Cytotoxicity against Homo sapiens (human) PC3 cells assessed as growth inhibition after 48 hr by MTT assay. Conditions: PC-3, 48 h. Format: functional, cell-based.

Calls of active or inactive are those of the source. The calls are words filed in the database; no cut-off is given here.

For the compound `O=C(/C=C/c1ccc2c(c1)OCO2)c1ccco1`, the “fold change (FC)” value with Staphylococcus aureus [1] is listed as 0. Moreover, in the test on Staphylococcus aureus [2], the minimal effective concentration is greater than 50 µg/mL. Besides, in test [3], the result was inactive. Further, in the test with Rattus norvegicus, the inhibition entry is “inactive”.
As for `COc1ccc(/C=C/C(=O)c2ccc[nH]2)cc1`, the “fold change (FC)” value in the test on Staphylococcus aureus [1] came out at 2. Also, the minimal effective concentration with Staphylococcus aureus [2] worked out at 25 µg/mL. Besides, the result in test [3] was inactive. Also, the inhibition result with Rattus norvegicus is “inactive”.
Regarding `O=C(/C=C/c1ccccc1Br)c1ccco1`, the “fold change (FC)” value with Staphylococcus aureus [1] stood at 0. In addition, the minimal effective concentration in the test on Staphylococcus aureus [2] was greater than 50 µg/mL. In addition, the outcome in test [3] was inactive. For the same compound, the inhibition entry with Rattus norvegicus was “inactive”.
As to `O=C(/C=C/c1ccc(Cl)cc1)c1ccco1`, the IC50 in the test on HL-60 came out at 19 µM; in the test with HeLa, 38 µM; in the test with MOLT-4 it was 23 µM; with PC-3, 29 µM. The “fold change (FC)” value in the test with Staphylococcus aureus [1] is 0. In addition, the minimal effective concentration in the test on Staphylococcus aureus [2] is greater than 50 µg/mL. Moreover, the result in test [3] was inactive. Besides, the inhibition entry in the test on Rattus norvegicus is “inactive”.
In the case of `COc1ccc(/C=C/C(=O)c2ccc[nH]2)cc1OC`, the “fold change (FC)” value in the test with Staphylococcus aureus [1] was determined as 0. Besides, the minimal effective concentration in the test with Staphylococcus aureus [2] was greater than 50 µg/mL. Also, the outcome in test [3] was inactive. Besides, the inhibition entry in the test with Rattus norvegicus was “inactive”.
`O=C(/C=C/c1ccc([N+](=O)[O-])cc1)c1ccco1`: in the test on Staphylococcus aureus [1], the “fold change (FC)” value turned out to be 0. Further, the minimal effective concentration in the test on Staphylococcus aureus [2] is greater than 50 µg/mL. The result in test [3] was inactive. Besides, in the test on Rattus norvegicus, the inhibition result is “inactive”.
For the compound `O=C(/C=C/c1ccccc1Br)c1ccc[nH]1`, the concentration for half-maximal inhibition (IC50) turned out to be 42 µM with HL-60, 44 µM in the test with HeLa, 38 µM in the test with MOLT-4 and 44 µM in the test on PC-3. Moreover, the “fold change (FC)” value with Staphylococcus aureus [1] is listed as 4. Also, the minimal effective concentration in the test on Staphylococcus aureus [2] amounted to 25 µg/mL. For the same compound, the result in test [3] was inactive. Also, the inhibition result with Rattus norvegicus was “inactive”.
As for `O=C(/C=C/c1cccc(Cl)c1Cl)c1ccc[nH]1`, the “fold change (FC)” value in the test with Staphylococcus aureus [1] stood at 0. Moreover, in the test on Staphylococcus aureus [2], the minimal effective concentration was greater than 50 µg/mL. In addition, the result in test [3] was inactive. Also, in the test on Rattus norvegicus, the inhibition result was “inactive”.
On to `COc1cccc(/C=C/C(=O)c2ccc[nH]2)c1OC`, for which, in the test with Staphylococcus aureus [1], the “fold change (FC)” value is listed as 4. Also, in the test on Staphylococcus aureus [2], the minimal effective concentration was 25 µg/mL. For the same compound, in test [3], the result was inactive. The inhibition entry in the test on Rattus norvegicus was “inactive”.
Turning to `COc1cccc(OC)c1/C=C/C(=O)c1ccc[nH]1`, the “fold change (FC)” value in the test on Staphylococcus aureus [1] was 0. Further, the minimal effective concentration in the test with Staphylococcus aureus [2] is greater than 50 µg/mL. The outcome in test [3] was inactive. Also, in the test with Rattus norvegicus, the inhibition result is “inactive”.
For the compound `O=C(/C=C/c1ccc(F)cc1)c1ccc[nH]1`, the “fold change (FC)” value in the test with Staphylococcus aureus [1] was 2. The minimal effective concentration in the test with Staphylococcus aureus [2] was found to be 25 µg/mL. Further, the outcome in test [3] was inactive. Also, the inhibition entry in the test on Rattus norvegicus is “inactive”.
As to `O=C(/C=C/c1ccccc1Cl)c1ccco1`, the half-inhibitory concentration (IC50) was found to be 12 µM in the test on HL-60, 26 µM with HeLa, 25 µM in the test with MOLT-4 and 14 µM with PC-3. The “fold change (FC)” value in the test on Staphylococcus aureus [1] is listed as 0. The minimal effective concentration in the test with Staphylococcus aureus [2] is greater than 50 µg/mL. The result in test [3] was inactive. Besides, the inhibition result in the test on Rattus norvegicus was “inactive”.
As for `O=C(/C=C/c1ccc(F)cc1)c1ccco1`, the “fold change (FC)” value in the test with Staphylococcus aureus [1] came to 0. The minimal effective concentration in the test with Staphylococcus aureus [2] is greater than 50 µg/mL. Besides, the outcome in test [3] was inactive. For the same compound, the inhibition result in the test on Rattus norvegicus is “inactive”.
As for `COc1ccc(/C=C/C(=O)c2ccc[nH]2)c(OC)c1`, the “fold change (FC)” value with Staphylococcus aureus [1] was 2. Also, in the test with Staphylococcus aureus [2], the minimal effective concentration was determined as 25 µg/mL. Further, in test [3], the outcome was inactive. Moreover, in the test on Rattus norvegicus, the inhibition entry is “inactive”.
`O=C(/C=C/c1c(Cl)cccc1Cl)c1ccc[nH]1`: the “fold change (FC)” value in the test with Staphylococcus aureus [1] worked out at 0. In addition, the minimal effective concentration with Staphylococcus aureus [2] was greater than 50 µg/mL. In addition, in test [3], the outcome was inactive. In the test with Rattus norvegicus, the inhibition result is “inactive”.
For the compound `COc1ccc(/C=C/C(=O)c2ccco2)cc1`, the “fold change (FC)” value in the test with Staphylococcus aureus [1] was determined as 0. Further, the minimal effective concentration in the test on Staphylococcus aureus [2] was greater than 50 µg/mL. The result in test [3] was inactive. The inhibition result with Rattus norvegicus was “inactive”.
With `O=C(/C=C/c1ccc(Br)cc1)c1ccco1`, the IC50 in the test with HL-60 was 48 µM; in the test on HeLa, greater than 100 µM; with MOLT-4, 62 µM; in the test on PC-3, 58 µM. For the same compound, in the test on Staphylococcus aureus [1], the “fold change (FC)” value worked out at 2. Also, in the test on Staphylococcus aureus [2], the minimal effective concentration stood at 25 µg/mL. Moreover, the result in test [3] was inactive. Further, the inhibition result in the test on Rattus norvegicus is “inactive”.
`O=C(/C=C/c1ccc(Cl)cc1)c1ccc[nH]1`: the IC50 was 13 µM with HL-60, 25 µM in the test on HeLa, 22 µM in the test with MOLT-4 and 18 µM in the test with PC-3. The “fold change (FC)” value with Staphylococcus aureus [1] amounted to 0. Moreover, the minimal effective concentration with Staphylococcus aureus [2] was greater than 50 µg/mL. The outcome in test [3] was inactive. Further, the inhibition result with Rattus norvegicus was “inactive”.
Consider `COC(=O)[C@H]1[C@H]2C[C@@H]3c4[nH]c5cc(OC)ccc5c4CCN3C[C@H]2C[C@@H](OC(=O)c2cc(OC)c(OC)c(OC)c2)[C@@H]1OC` [RESERPINE], for which the “fold change (FC)” value in the test with Staphylococcus aureus [1] came out at 0. Moreover, in the test on Staphylococcus aureus [2], the minimal effective concentration was found to be 25 µg/mL.
For `O=C(/C=C/c1ccccc1Cl)c1ccc[nH]1`, the “fold change (FC)” value with Staphylococcus aureus [1] is 4. The minimal effective concentration in the test with Staphylococcus aureus [2] was found to be 25 µg/mL. Also, the outcome in test [3] was inactive. In addition, the inhibition result in the test with Rattus norvegicus was “inactive”.
On to `COc1ccc(/C=C/C(=O)c2ccco2)cc1OC`, for which the “fold change (FC)” value in the test on Staphylococcus aureus [1] was 0. Moreover, the minimal effective concentration with Staphylococcus aureus [2] was greater than 50 µg/mL. In addition, in test [3], the result was inactive. Further, in the test with Rattus norvegicus, the inhibition in vivo at 100 mg/kg is 23%.
Take `COc1ccc(CCN(C)CCCC(C#N)(c2ccc(OC)c(OC)c2)C(C)C)cc1OC` (centres undefined) [VERAPAMIL]: the “fold change (FC)” value with Staphylococcus aureus [1] came to 2. Moreover, the minimal effective concentration in the test with Staphylococcus aureus [2] was found to be 50 µg/mL.
Consider `COc1cc(/C=C/C(=O)c2ccco2)cc(OC)c1OC`, for which the “fold change (FC)” value in the test with Staphylococcus aureus [1] was found to be 0. The minimal effective concentration in the test on Staphylococcus aureus [2] was greater than 50 µg/mL. For the same compound, in test [3], the result was inactive. For the same compound, the inhibition entry in the test on Rattus norvegicus is “inactive”.
With `O=C(/C=C/c1ccc2c(c1)OCO2)c1ccc[nH]1`, in the test on Staphylococcus aureus [1], the “fold change (FC)” value is 0. Besides, in the test with Staphylococcus aureus [2], the minimal effective concentration is greater than 50 µg/mL. Also, the outcome in test [3] was inactive. In the test with Rattus norvegicus, the inhibition result is “inactive”.
Take `CN(C)c1ccc(/C=C/C(=O)c2ccc[nH]2)cc1`: the “fold change (FC)” value with Staphylococcus aureus [1] stood at 0. Also, the minimal effective concentration in the test with Staphylococcus aureus [2] is greater than 50 µg/mL. For the same compound, the outcome in test [3] was inactive. In addition, the inhibition result with Rattus norvegicus is “inactive”.
For `COc1cccc(/C=C/C(=O)c2ccco2)c1OC`, the “fold change (FC)” value in the test with Staphylococcus aureus [1] is 4. In addition, the minimal effective concentration with Staphylococcus aureus [2] was determined as 25 µg/mL. Also, the outcome in test [3] was inactive. Further, in the test with Rattus norvegicus, the inhibition result is “inactive”.
For the compound `COc1ccc(OC)c(/C=C/C(=O)c2ccco2)c1`, the “fold change (FC)” value in the test on Staphylococcus aureus [1] was 0. Besides, in the test on Staphylococcus aureus [2], the minimal effective concentration was greater than 50 µg/mL. The result in test [3] was inactive. The inhibition entry in the test on Rattus norvegicus was “inactive”.

One may read the IC50 as the concentration needed to halve the response being measured. What is called inhibition in vivo is the relative decrease from the control value, in per cent.
